From the NIST ThermoML archive (doi:10.1021/je800110r)
Where “and” joins values, the source holds several entries; their conditions need not be identical. Identical values can stand only once.

Details: 293.15 K, Liquid, Vibrating tube method

CCCCCCCCCC [decane]
Details | mass density
375 kPa | 730.1 kg/m3
394 kPa | 730.1 kg/m3
411 kPa | 730.1 kg/m3
427 kPa | 730.1 kg/m3
448 kPa | 730.1 kg/m3
469 kPa | 730.1 kg/m3
487 kPa | 730.1 kg/m3
510 kPa | 730.2 kg/m3
528 kPa | 730.3 kg/m3
551 kPa | 730.3 kg/m3
571 kPa | 730.3 kg/m3
605 kPa | 730.4 kg/m3
692 kPa | 730.3 kg/m3
760 kPa | 730.4 kg/m3
843 kPa | 730.5 kg/m3
898 kPa | 730.6 kg/m3
949 kPa | 730.5 kg/m3
998 kPa | 730.6 kg/m3
1057 kPa | 730.6 kg/m3
1102 kPa | 730.7 kg/m3
1141 kPa | 730.7 kg/m3
1165 kPa | 730.8 kg/m3
1196 kPa | 730.7 kg/m3
1214 kPa | 730.7 kg/m3
1243 kPa | 730.8 kg/m3
1266 kPa | 730.8 kg/m3
1302 kPa | 730.9 kg/m3
1332 kPa | 730.8 kg/m3
1362 kPa | 730.9 kg/m3
1397 kPa | 730.9 kg/m3
1430 kPa | 730.9 kg/m3
1459 kPa | 730.9 kg/m3
1493 kPa | 731 kg/m3
1535 kPa | 731.1 kg/m3
1567 kPa | 731.1 kg/m3
1623 kPa | 731 kg/m3
1669 kPa | 731.1 kg/m3
1712 kPa | 731.2 kg/m3
1762 kPa | 731.3 kg/m3
1802 kPa | 731.2 kg/m3
1843 kPa | 731.3 kg/m3
1915 kPa | 731.4 kg/m3
1974 kPa | 731.3 kg/m3
2021 kPa | 731.5 kg/m3
2094 kPa | 731.4 kg/m3
2187 kPa | 731.5 kg/m3
2240 kPa | 731.6 kg/m3
2295 kPa | 731.6 kg/m3
2363 kPa | 731.7 kg/m3
2423 kPa | 731.7 kg/m3
2496 kPa | 731.7 kg/m3
2561 kPa | 731.9 kg/m3
2629 kPa | 731.9 kg/m3
2700 kPa | 731.8 kg/m3
2720 kPa | 732.1 kg/m3
2731 kPa | 732 kg/m3
2742 kPa | 732 kg/m3
2755 kPa | 732 kg/m3
2770 kPa | 732 kg/m3
2785 kPa | 731.9 kg/m3
2795 kPa | 732 kg/m3
2813 kPa | 732 kg/m3
2824 kPa | 732 kg/m3
2834 kPa | 732 kg/m3
2851 kPa | 732.1 kg/m3
2884 kPa | 732 kg/m3
2939 kPa | 732.1 kg/m3
3009 kPa | 732.1 kg/m3
3026 kPa | 732.2 kg/m3
3040 kPa | 732.2 kg/m3
3052 kPa | 732.1 kg/m3
3064 kPa | 732.2 kg/m3
3077 kPa | 732.2 kg/m3
3094 kPa | 732.3 kg/m3
3109 kPa | 732.1 kg/m3
3122 kPa | 732.3 kg/m3
3136 kPa | 732.1 kg/m3
3147 kPa | 732.3 kg/m3
3155 kPa | 732.2 kg/m3
3188 kPa | 732.2 kg/m3
3283 kPa | 732.4 kg/m3
3344 kPa | 732.4 kg/m3
3442 kPa | 732.5 kg/m3
3479 kPa | 732.4 kg/m3
3494 kPa | 732.5 kg/m3
3506 kPa | 732.5 kg/m3
3529 kPa | 732.6 kg/m3
3551 kPa | 732.6 kg/m3
3564 kPa | 732.6 kg/m3
3584 kPa | 732.6 kg/m3
3599 kPa | 732.7 kg/m3
3619 kPa | 732.7 kg/m3
3635 kPa | 732.7 kg/m3
3653 kPa | 732.6 kg/m3
3672 kPa | 732.8 kg/m3
3690 kPa | 732.6 kg/m3
3705 kPa | 732.8 kg/m3
3719 kPa | 732.7 kg/m3
3735 kPa | 732.8 kg/m3
3748 kPa | 732.6 kg/m3
3764 kPa | 732.8 kg/m3
3781 kPa | 732.7 kg/m3
3793 kPa | 732.9 kg/m3
3810 kPa | 732.7 kg/m3
3829 kPa | 732.9 kg/m3
3842 kPa | 732.8 kg/m3
3861 kPa | 732.8 kg/m3
3881 kPa | 732.8 kg/m3
3894 kPa | 732.8 kg/m3
3916 kPa | 732.9 kg/m3
3929 kPa | 732.9 kg/m3
3952 kPa | 732.9 kg/m3
3964 kPa | 732.9 kg/m3
3984 kPa | 733 kg/m3
4001 kPa | 733 kg/m3
4012 kPa | 733 kg/m3
4029 kPa | 733 kg/m3
4046 kPa | 733 kg/m3
4060 kPa | 733 kg/m3
4084 kPa | 733 kg/m3
4099 kPa | 733 kg/m3
4117 kPa | 733 kg/m3
4130 kPa | 733.1 kg/m3
4150 kPa | 733.2 kg/m3
4166 kPa | 733 kg/m3
4190 kPa | 733 kg/m3
4211 kPa | 733 kg/m3
4226 kPa | 733.1 kg/m3
4247 kPa | 733.1 kg/m3
4269 kPa | 733.3 kg/m3
4281 kPa | 733.1 kg/m3
4302 kPa | 733.2 kg/m3
4323 kPa | 733.1 kg/m3
4338 kPa | 733.2 kg/m3
4361 kPa | 733.3 kg/m3
4382 kPa | 733.2 kg/m3
4401 kPa | 733.2 kg/m3
4420 kPa | 733.3 kg/m3
4439 kPa | 733.3 kg/m3
4450 kPa | 733.5 kg/m3
4464 kPa | 733.3 kg/m3
4478 kPa | 733.3 kg/m3
4500 kPa | 733.3 kg/m3
4518 kPa | 733.3 kg/m3
4530 kPa | 733.3 kg/m3
4544 kPa | 733.3 kg/m3
4558 kPa | 733.4 kg/m3
4571 kPa | 733.3 kg/m3
4586 kPa | 733.3 kg/m3
4595 kPa | 733.3 kg/m3
4616 kPa | 733.5 kg/m3
4637 kPa | 733.4 kg/m3
4652 kPa | 733.4 kg/m3
4671 kPa | 733.3 kg/m3
4685 kPa | 733.6 kg/m3
4705 kPa | 733.4 kg/m3
4728 kPa | 733.4 kg/m3
4742 kPa | 733.5 kg/m3
4760 kPa | 733.5 kg/m3
4773 kPa | 733.5 kg/m3
4795 kPa | 733.7 kg/m3
4810 kPa | 733.6 kg/m3
4831 kPa | 733.5 kg/m3
4849 kPa | 733.6 kg/m3
4877 kPa | 733.5 kg/m3
4901 kPa | 733.6 kg/m3
4914 kPa | 733.7 kg/m3
4937 kPa | 733.6 kg/m3
4953 kPa | 733.7 kg/m3
4976 kPa | 733.7 kg/m3
4996 kPa | 733.6 kg/m3
5014 kPa | 733.8 kg/m3
5029 kPa | 733.7 kg/m3
5053 kPa | 733.7 kg/m3
5076 kPa | 733.8 kg/m3
5091 kPa | 733.8 kg/m3
5103 kPa | 733.9 kg/m3
5127 kPa | 733.8 kg/m3
5148 kPa | 733.7 kg/m3
5166 kPa | 733.9 kg/m3
5187 kPa | 733.8 kg/m3
5202 kPa | 733.8 kg/m3
5220 kPa | 733.9 kg/m3
5234 kPa | 733.8 kg/m3
5248 kPa | 733.9 kg/m3
5264 kPa | 733.9 kg/m3
5278 kPa | 733.9 kg/m3
5297 kPa | 733.8 kg/m3
5299 kPa | 733.9 kg/m3
5304 kPa | 733.9 kg/m3
5315 kPa | 733.9 kg/m3
5319 kPa | 733.9 kg/m3
5329 kPa | 733.9 kg/m3
5335 kPa | 734 kg/m3
5346 kPa | 734 kg/m3
5352 kPa | 734 kg/m3
5362 kPa | 733.9 kg/m3
5375 kPa | 734 kg/m3
5393 kPa | 733.9 kg/m3
5395 kPa | 734 kg/m3
5409 kPa | 733.9 kg/m3
5422 kPa | 734 kg/m3
5424 kPa | 734.1 kg/m3
5440 kPa | 734 kg/m3
5459 kPa | 734 kg/m3
5475 kPa | 734.1 kg/m3
5492 kPa | 734 kg/m3
5508 kPa | 734 kg/m3
5522 kPa | 734 kg/m3
5541 kPa | 734.1 kg/m3
5556 kPa | 734.1 kg/m3
5570 kPa | 734.1 kg/m3
5592 kPa | 734.1 kg/m3
5612 kPa | 734.2 kg/m3
5626 kPa | 734.2 kg/m3
5643 kPa | 734.2 kg/m3
5656 kPa | 734.2 kg/m3
5676 kPa | 734.3 kg/m3
5696 kPa | 734.2 kg/m3
5714 kPa | 734.1 kg/m3
5734 kPa | 734.3 kg/m3
5753 kPa | 734.2 kg/m3
5771 kPa | 734.3 kg/m3
5792 kPa | 734.3 kg/m3
5808 kPa | 734.4 kg/m3
5824 kPa | 734.4 kg/m3
5839 kPa | 734.4 kg/m3
5858 kPa | 734.4 kg/m3
5880 kPa | 734.4 kg/m3
5902 kPa | 734.3 kg/m3
5918 kPa | 734.4 kg/m3
5937 kPa | 734.3 kg/m3
5957 kPa | 734.4 kg/m3
5977 kPa | 734.5 kg/m3
5992 kPa | 734.4 kg/m3
6012 kPa | 734.5 kg/m3
6035 kPa | 734.5 kg/m3
6050 kPa | 734.6 kg/m3
6077 kPa | 734.6 kg/m3
6097 kPa | 734.6 kg/m3
6112 kPa | 734.6 kg/m3
6135 kPa | 734.5 kg/m3
6161 kPa | 734.6 kg/m3
6198 kPa | 734.7 kg/m3
6243 kPa | 734.6 kg/m3
6254 kPa | 734.6 kg/m3
6257 kPa | 734.6 kg/m3
6259 kPa | 734.7 kg/m3
6262 kPa | 734.6 kg/m3
6265 kPa | 734.6 kg/m3
6266 kPa | 734.7 kg/m3 and 734.6 kg/m3
6267 kPa | 734.6 kg/m3
6268 kPa | 734.6 kg/m3
6278 kPa | 734.7 kg/m3
6299 kPa | 734.6 kg/m3
6320 kPa | 734.6 kg/m3
6344 kPa | 734.7 kg/m3
6362 kPa | 734.7 kg/m3
6383 kPa | 734.7 kg/m3
6411 kPa | 734.9 kg/m3
6436 kPa | 734.7 kg/m3
6451 kPa | 734.7 kg/m3
6476 kPa | 734.8 kg/m3
6502 kPa | 734.9 kg/m3
6521 kPa | 734.8 kg/m3
6550 kPa | 734.8 kg/m3
6573 kPa | 734.8 kg/m3
6596 kPa | 734.8 kg/m3
6622 kPa | 734.9 kg/m3
6642 kPa | 734.8 kg/m3
6665 kPa | 735 kg/m3
6692 kPa | 734.9 kg/m3
6725 kPa | 735 kg/m3
